Article PMC8279406 (Journal of Medicinal Chemistry, 2021)

Assays:
[1] = system: recombinant R8102 HSV-1 strain; assay: Infection neutralization assay, 293T cells, R8102 HSV-1, β-galactosidase readout; type: cell-based; conditions: increasing concentrations, 1 h prior to infection and 90 min during attachment
From the text: The binding of HSV-1 gH/gL to either αvβ6 or αvβ8 results in the dissociation of gL from the heterodimer, which, in turn, can favor HSV entry into cells.[27] […] R1.302, a nectin1-neutralizing mAb, was used as a positive control. In the first set of experiments, 293T cells, expressing both the αvβ6 and αvβ8 integrins, were alternatively exposed to increasing concentrations of the integrin-binding peptides and R1.302 before and during the infection by the recombinant R8102 HSV-1 strain. This virion carries, indeed, a lacZ reporter gene under the control of the α27 promoter, whose expression analysis allows for readily quantifying the infectivity.[59] […] Remarkably, these preliminary results were in agreement with the known interchangeable and additive roles played by αvβ6 and αvβ8 integrins upon HSV-1 infection.[26]
Figure 3 Inhibition of HSV-1 infection. 293T cells were exposed to increasing concentrations of the indicated peptides for 1 h prior to infection and during virus attachment for another 90 min. Infection was induced using the recombinant R8102 HSV-1 strain and measured after 8 h as β-galactosidase activity, using o-nitrophenyl-D-galactopyranoside (ONPG) as a substrate. The assays were run in triplicate. Bars show standard deviation (SD).
The experiments were performed using 293T cells in 96-well plates with extracellular virions of R8102 at an input multiplicity of infection of 5 PFU/cell. Cells were exposed to increasing concentrations of the peptides for 1 h at 37 °C, and the viral inoculum was added in the presence of peptides for 90 min at 37 °C. After the removal of the inoculum and rinsing with DMEM containing 1% FBS, the cells were incubated without peptides for 8 h. The same protocol was followed for R1.302 mAb that was used as a positive control. The infection was quantified as β-Gal activity using o-nitrophenyl-D-galactopyranoside (ONPG) as a substrate.[86]

[2] = system: recombinant K26GFP HSV-1 strain; assay: Infection neutralization assay, transfected J cells, K26GFP HSV-1, EGFP expression; type: cell-based; conditions: all of the examined J cell samples, 700 μM
From the text: To this aim, we selected the J cells, which are negative for gD receptors and therefore cannot be infected by HSV-1 unless gD cognate receptors (i.e., nectin1) are transgenically expressed. […] In particular, J cells were transfected with low amounts of nectin1 plasmid, plus either αvβ6 or αvβ8 integrin plasmid or both, and then infected with the recombinant K26GFP HSV-1 strain. Indeed, the capsid protein ICP26 of this strain is fused to the green fluorescent protein (GFP),[60] whose cellular expression can be used to measure the viral infection. Thus, the K26GFP entry in J cells after compound treatment was evaluated using fluorescent microscopy (Figure 4A–T), and the enhanced green fluorescent protein (EGFP) expression was quantified using flow cytometry as the mean fluorescence intensity (MFI) of gated cells (Figure 4U). […] In parallel, we also evaluated the HSV infection in J cells expressing nectin1 plus either αvβ6 or αvβ8 alone.
J cells were transfected with a low amount (75 ng of DNA/24 well) of nectin1 alone (A–E), or with the same amount of nectin1 plus αvβ6 integrin (300 ng DNA/24 well) (F–J), or plus αvβ8 integrin (300 ng DNA/24 well) (K–O), or plus both the integrin receptors (P–T). […] The cells were infected with K26GFP. The nonpenetrated virus was inactivated by an acid wash. Infectivity was measured at 16 h after infection as EGFP expression. (A)–(T) panels show the EGFP expression in each sample for a typical experiment. (U) K26GFP infection was quantified as EGFP protein expression in the flow cytometry assay as the mean fluorescence intensity (MFI) of gated cells. Histograms represent the average of triplicates ± SD.
In other experiments, J cells were transfected with low amounts of plasmids encoding nectin1 (75 ng of DNA/24 well), plus or minus plasmids encoding αv + β6 or αv + β8 integrins (300 ng of DNA/24 well) or together by means of Lipofect 2000 (Life Technologies). The total amount of transfected plasmid DNA was made equal (675 ng/24 well) by the addition of Erb-2 plasmid DNA. […] Following infection, the unpenetrated virus was inactivated by means of an acid wash (40 mM citric acid, 10 mM KCl, 135 mM NaCl, pH 3),[87] and the cells were incubated for a further 16 h in the absence of the peptides or antibody. The extent of infection was assessed through EGFP expression.
Cytofluorimetric analyses were performed using an AccuriC6 flow cytometer (Becton Dickinson). A least 10 000 events were acquired for each sample. Microphotography of the inhibition experiment was conducted using a Nikon Eclipse Ni microscope.

human αvβ6 integrin = biological target: T1, human αvβ6 integrin (Homo sapiens, UniProt P06756+P18564); assay: LAP(TGF-β1)-αvβ6 competitive solid-phase ELISA binding assay; conditions: immobilized LAP, soluble integrin
T1 construct: using immobilized ECM protein and soluble integrin; purchased R&D Systems (Biotechne brand) 3817-AV
Procedure: (§1) The affinity and selectivity of the integrin peptide ligands were ascertained according to a modified method previously reported by some of us.[33],[47] The binding was determined in a competitive solid-phase binding assay using extracellular matrix proteins, soluble integrins, and pertinent integrin-specific antibodies in an enzyme-linked immunosorbent assay (ELISA).
A flat-bottom 96-well ELISA plate was coated overnight at 4 °C with 100 μL/well of 0.4 μg/mL LAP previously diluted in carbonate buffer (15 mM Na2CO3, 35 mM NaHCO3, pH 9.6). Afterward, each well was then washed three times with 200 μL of PBS-T buffer (137 mM NaCl, 2.7 mM KCl, 10 mM Na2HPO4, 2 mM KH2PO4, 0.01% Tween 20, pH 7.4) and blocked for 1 h at room temperature with 150 μL/well TSB buffer (20 mM Tris–HCl, 150 mM NaCl, 1 mM CaCl2, 1 mM MgCl2, 1 mM MnCl2, pH 7.5, 1% BSA). Then, each well was washed three times with 200 μL of PBS-T.
Equal volumes (50 μL) of the internal standard (or test compounds) were mixed with 0.5 μg/mL human integrin αvβ6 (50 μL) giving a final dilution series in TSB buffer of 0.00064–10 μM for the inhibitors and 0.25 μg/mL for integrin αvβ6. These solutions (100 μL/well) were added to the flat-bottom ELISA plate and incubated for 1 h at room temperature. The solutions were discarded from the wells, and the plate was washed three times with PBS-T buffer (3 × 200 μL). […] The solutions were discarded from the wells, and the plate was washed three times with PBS-T (3 × 200 μL). The binding assay was developed by adding 50 μL/well of the 3,3′,5,5′-tetramethylbenzidine (TMB) liquid substrate system and incubating for 1 min at room temperature. The reaction was stopped by adding 50 μL/well of 3 M H2SO4. The peroxidase product formation was detected by measuring the absorbance at […] using a plate reader (Tecan SpectraFLUOR plus, Männedorf, Switzerland). Each compound concentration was tested in duplicate, and the resulting inhibition curves were analyzed using OriginPro 7.5G software; the inflection point describes the IC50 value. Each plate contained a linear peptide ([…]) as the internal standard.[63]

human αvβ8 integrin = biological target: T2, human αvβ8 integrin (Homo sapiens, UniProt P06756+P26012); assay: LAP(TGF-β1)-αvβ8 competitive solid-phase ELISA binding assay; conditions: competitive ELISA, immobilized LAP, soluble integrin
T2 construct: purchased R&D Systems (Biotechne brand) 4135-AV
Procedure: as §1
The experimental procedure is as described for the αvβ6 assay, except for the following modifications. The plates were coated, washed, and blocked as described above. Soluble integrin αvβ8 was mixed with an equal volume of serially diluted inhibitors resulting in a final integrin concentration of 0.25 μg/mL and 0.0032–10 μM for the inhibitors. The primary and secondary antibodies are the same as in the integrin αvβ6 assay. Visualization and analysis were performed as described above. Each plate contained a linear peptide ([…]) as the internal standard.[3]

Row | IC50 (human αvβ6 integrin) [µM] | IC50 (human αvβ8 integrin) [µM] | SMILES | effect on HSV-1 infection (in words) [1] | effect on HSV entry (in words) [2]
1 | – | – | CC(C)[C@H]1C(=O)N[C@@H](CCCNC(=N)N)C(=O)NCC(=O)N[C@@H](CC(=O)O)C(=O)N[C@H](Cc2ccccc2)C(=O)N1C [cilengitide, reference compound] | no alteration in the HSV entry process | no effect
2 | 0.105 ± 0.008 | 2.25 ± 0.089 | CN1C(=O)CC[C@@H](C(N)=O)NC(=O)[C@H](C2CCCCC2)NC(=O)[C@H](CC(=O)O)NC(=O)CNC(=O)[C@@H]1CCCNC(=N)N [compound 2, [(NMe)Arg-Gly-Asp-Chg-Glu]-CONH2] | – | –
3 | 0.211 ± 0.026 | 3.32 ± 0.122 | CN1CC(=O)N[C@@H](CC(=O)O)C(=O)N[C@@H](C2CCCCC2)C(=O)N[C@H](C(N)=O)CCC(=O)N[C@@H](CCCNC(=N)N)C1=O [compound 3, [Arg-(NMe)Gly-Asp-Chg-Glu]-CONH2] | – | –

Row | SMILES | IC50 (human αvβ6 integrin) [µM] | IC50 (human αvβ8 integrin) [µM] | effect on HSV-1 infection (in words) [1] | effect on HSV entry (in words) [2]
4 | CN1C(=O)[C@H](CC(=O)O)NC(=O)CNC(=O)[C@H](CCCNC(=N)N)NC(=O)CC[C@@H](C(N)=O)NC(=O)[C@@H]1C1CCCCC1 [compound 5, [Arg-Gly-Asp-(NMe)Chg-Glu]-CONH2] | > 5 | > 5 | – | –
